Measured values published in the NIST ThermoML archive (doi:10.1016/j.jct.2008.03.013).

Assays:
[1] = refractive index (Na D-line) (dimensionless); xn = mol fraction of the nth substance listed; conditions: 298.15 K, 100 kPa, Liquid, Standard Abbe refractometry
[2] = xn = mol fraction of the nth substance listed; conditions: 100 kPa, Liquid
[3] = 100 kPa, Liquid
[4] = refractive index (Na D-line) (dimensionless); conditions: 298.15 K; 101.33 kPa; Liquid; Standard Abbe refractometry

CCCCn1cc[n+](C)c1.COS(=O)(=O)[O-] [1-butyl-3-methylimidazolium methyl sulfate] + O
[1]
Conditions | refractive index
x2 = 0 | 1.47792
x2 = 0.0325 | 1.47746
x2 = 0.1703 | 1.47584
x2 = 0.2989 | 1.47341
x2 = 0.4104 | 1.47032
x2 = 0.4774 | 1.46814
x2 = 0.5886 | 1.463
x2 = 0.6859 | 1.45603
x2 = 0.7856 | 1.44395
x2 = 0.8899 | 1.41842
x2 = 0.9466 | 1.38937

[2]
Conditions | mass density, 298.15 K [kg/m3] | mass density, 313.15 K [kg/m3] | mass density, 328.15 K [kg/m3] | viscosity, 298.15 K [mPa·s] | viscosity, 313.15 K [mPa·s] | viscosity, 328.15 K [mPa·s]
x2 = 0 | 1213.43 | 1203.48 | 1193.59 | 182.3 | 84.8 | 45.35
x2 = 0.0325 | 1212.91 | 1202.96 | 1193.03 | 177 | 82.8 | 44.8
x2 = 0.1703 | 1211.05 | 1201.02 | 1190.99 | 137 | 68.9 | 41.09
x2 = 0.2989 | 1208.33 | 1198.3 | 1188.25 | 95.4 | 51.5 | 33.85
x2 = 0.4104 | 1204.62 | 1194.57 | 1184.54 | 65.5 | 35.77 | 23.52
x2 = 0.4774 | 1201.72 | 1191.55 | 1181.33 | 50.2 | 27.55 | 18.25
x2 = 0.5886 | 1194.68 | 1184.43 | 1174.25 | 31.93 | 18.4 | 11.98
x2 = 0.6859 | 1185.23 | 1174.8 | 1164.26 | 20.28 | 12.03 | 7.862
x2 = 0.7856 | 1168.21 | 1157.61 | 1146.83 | 11.42 | 7.027 | 4.738
x2 = 0.8899 | 1130.52 | 1120.17 | 1109.5 | 5.071 | 3.296 | 2.306
x2 = 0.9466 | 1085.81 | 1076.83 | 1067.17 | 2.597 | 1.763 | 1.281

CCO [ethanol]
[3]
Conditions | mass density [kg/m3] | viscosity [mPa·s]
298.15 K | 785.46 | 1.082
313.15 K | 772 | 0.827
328.15 K | 758.55 | 0.641

Conditions | refractive index
[4] | 1.36023

CCO [ethanol] + CCCCn1cc[n+](C)c1.COS(=O)(=O)[O-]
Conditions | refractive index
[1], x1 = 1 | 1.36023

[2], x1 = 1
Conditions | mass density [kg/m3] | viscosity [mPa·s]
298.15 K | 785.46 | 1.082
313.15 K | 772 | 0.827
328.15 K | 758.55 | 0.641
